According to patent publication US20220226321A1, “INHIBITOR OF MNK FOR THE TREATMENT OF NEUROPATHIC PAIN” (Board of Regents, The University of Texas System, priority 2019, published 2022):

Columns and labels:
infralimbic cortex = conditions: neuropathic mice (Shiers et al., 2018); cited from earlier work
SNI mice = conditions: neuropathic mice (Shiers et al., 2018); cited from earlier work
mice [1] = conditions: Moy et al. (2017); cited from earlier work
DRG neurons [2] = conditions: prior work; cited from earlier work
mice [3] = experiment: thermal latency (Hargreaves) after type I IFN or poly (I:C); type: in vivo, mouse
Method: (§1) Behavior. Mice were housed on 12-hour light/dark cycles with food and water available ad libitum. Mice were randomized to groups from multiple cages to avoid using mice from experimental groups that were cohabitating. Sample size was estimated by performing a power calculation using G*Power (version 3.1.9.2). With 80% power and an expectation of d=2.2 effect size in behavioral experiments, and a set to 0.05, the sample size required was calculated as n=6 per group. The inventors therefore sought to have at least n=6 sample in all behavioral experiments. SD (set at 0.3) for the power calculation was based on previously published mechanical threshold data from the inventors' lab (Moy et al., 2017). Animals were habituated for 1 hour to clear acrylic behavioral chambers before beginning the experiment. For intraplantar injections, drugs were injected in a total volume of 25 μL through a 30-gauge needle. For intraperitoneal injections, drugs were administered in a volume of 100 μL Mechanical paw withdrawal thresholds in mice were measured using the up-down method (Chaplan et al., 1994) with calibrated von Frey filaments (Stoelting Company, WoodDale, Ill.). Thermal latency was measured using a Hargreaves device (IITC Life Science) (Hargreaves et al., 1988) with heated glass settings of 29° C., 40% active laser power, and 20 sec cutoff were used. The experimenter was blinded to the genotype of the mice and the drug condition in all experiments.

cultured DRG neurons = experiment: Western blot of cultured DRG neurons treated with IFN-α, IFN-β, ISRIB or poly (I:C); type: cell-based, mouse
Method: Primary cell culture of mouse DRG neurons and Western blot. Cultured primary DRG neurons were used to test the effects of IFN-α [(300 units (U)/mL] and IFN-β [(300 units (U)/mL] application. For these experiments, mice were anesthetized with isoflurane and killed by decapitation. Then DRGs, from all spinal levels, were dissected and placed in chilled Hanks balanced-salt solution (HBSS, Invitrogen) until processed. Dorsal root ganglia were digested in 1 mg/mL collagenase A (Roche, Mannheim, Germany) for 25 minutes at 37° C. then subsequently digested in a 1:1 mixture of 1 mg/mL collagenase D and papain (Roche) for 20 minutes at 37° C. After this step, dorsal root ganglia were then triturated in a 1:1 mixture of 1 mg/mL trypsin inhibitor (Roche) and bovine serum albumin (BioPharm Laboratories, Bluffdale, Utah), then filtered through a 70 μm cell strainer (Corning, N.Y.). Cells were pelleted then resuspended in DMEM/F12 with GlutaMAX (Thermo Fisher Scientific, MA) containing 10% fetal bovine serum (FBS; Thermo Fisher Scientific), 5 ng/mL NGF, 1% penicillin and streptomycin, and […] to inhibit mitosis of non-neuronal cells and were distributed evenly in a 6-well plate coated with poly-D-lysine (Becton Dickinson, NJ). DRG neurons were maintained in a 37° C. incubator containing 5% CO2 with a media change every other day. On day 6, DRG neurons were treated with either vehicle, IFN-α or IFN-β for 1, 3, 6 and 24 h. Following treatments, cells were rinsed with chilled 1×PBS buffer, harvested in 200 μL of RIPA lysis buffer (50 mM Tris, pH 7.4, 150 mM NaCl, 1 mM EDTA, pH 8.0, and 1% Triton X-100) containing protease and phosphatase inhibitors (Sigma-Aldrich), and then sonicated for 5 seconds. To clear debris, samples were centrifuged at 14,000 rpm for 15 min at 4° C. Ten to 15 μg of protein was loaded into each well and separated by a 10% SDS-PAGE gel. Proteins were transferred to a 0.45 PVDF membrane (Millipore, MA) at 30 V overnight at 4° C. Subsequently, membranes were blocked with 5% non-fat dry milk in 1× Tris buffer solution containing Tween 20 (TTBS) for at least 2 h. Membranes were washed 3 times for 10 minutes each (3×10) in 1×TTBS, then incubated with primary antibodies overnight at 4° C. The following day, membranes were washed 3×10 each then incubated with the corresponding secondary antibodies at room temperature for 1 h. After incubation, membranes were washed with 1×TTBS 3×10 each. Signals were detected using Immobilon Western Chemiluminescent HRP Substrate (Millipore) and then visualized with Bio-Rad ChemiDoc Touch. Membranes were stripped using Restore Western Blot Stripping buffer (Thermo Fisher Scientific) and reprobed with another antibody. Analysis was performed using Image lab 6.0.1 software for Mac (Bio-Rad, Hercules, Calif.).

mice [4] = experiment: mechanical paw withdrawal threshold (von Frey) after type I IFN or poly (I:C); type: in vivo, mouse
Method: as §1

DRG neurons [5] = experiment: patch-clamp electrophysiology of DRG neurons exposed to IFN-α; conditions: 300 U/mL, ~1 h
eIF4E [6] = experiment: immunocytochemistry of p-eIF4E in cultured DRG neurons; type: cell-based, mouse; conditions: 300 U/mL, one-hour stimulation
Method: Immunofluorescence. For primary neuronal cultures, DRG neurons were harvested and cultured for 6 days according to the protocol described above with the exception that cells were distributed evenly on poly-D-lysine-coated 8-well chamber slide with removable wells (cat #12-565-8, Fisher Scientific). After treatments, cells were fixed in ice-cold 10% formalin in 1×PBS for 1 h and processed for immunocytochemistry (ICC). Cells were washed with 1×PBS and permeabilized in 1×PBS containing 10% heat-inactivated normal goat serum (NGS; Atlanta Biologicals, Atlanta, Ga.) and 0.02% Triton X-100 (Sigma) in 1×PBS for 30 min and then blocked in 10% NGS in 1×PBS for 2 h. […] Images were taken using an Olympus FluoView 1200 confocal microscope and analyzed with FIJI for Mac OS X. Images shown are representative of samples taken from 3 separate wells and presented as projections of Z stacks. Using ImageJ, the corrected total cell fluorescence (CTCF) was calculated to determine the intensity of the signal between experimental groups. To do so, the integrated density and the area, as well as the background noise was measured and the CTCF calculated as equal to: the integrated density −(area of selected cell×mean fluorescence of background readings). CTCF values from all experimental treatment groups were normalized to vehicle groups and expressed as normalized CTCF.

[7] = body temperature after intraperitoneal poly (I:C); type: in vivo, mouse; conditions: 1 mg/kg i.p.
eIF4E [8] = experiment: immunohistochemistry of p-eIF4E and eIF4E in L5 DRGs; type: in vivo, mouse; conditions: WT mice, day 2, 3 hr post 2nd injection
Method: For tissues, animals were anesthetized with isoflurane and killed by decapitation, and tissues were frozen in O.C.T. on dry ice. Spinal cords were pressure ejected using chilled 1×PBS. Sections of L4-L5 DRGs ([…]) were mounted onto SuperFrost Plus slides (Thermo Fisher Scientific) and fixed in ice-cold 10% formalin in 1×PBS for 1 h then subsequently washed 3×10 each in 1×PBS and processed for immunohistochemistry (IHC). Slides were permeabilized in 50% ethanol for 30 min. After 30 min, slides were washed 3×10 each in 1×PBS. Tissues were blocked for at least 2 h in 1×PBS and 10% NGS. Primary antibodies against NeuN, peripherin, p-eIF4E^S209 and eIF4E were applied and incubated with DRG sections on slides at 4° C. overnight. Immunoreactivity was visualized after 1 h incubation with Alexa Fluor secondary antibodies at room temperature. Images were taken using an Olympus FluoView 1200 confocal microscope. Images are presented as projections of Z stacks, and they are representative of samples taken from 3 animals.

[9] = 1 mg/kg i.p. for 2 consecutive days, 3-24 h after second administration

CN(C)C(=N)N=C(N)N [metformin]
AIS shrinkage in the IL (infralimbic cortex): attenuated | cognitive deficits (SNI mice): attenuated

CC(=O)C1=C(O)C=C2Oc3c(C(N)=O)c(O)cc(O)c3[C@]2(C)C1=O [cercosporamide]
cold hypersensitivity induced by peripheral nerve injury (mice [1]): reduced | IL-6 induced DRG nociceptor excitability (DRG neurons [2]): attenuated

IFN-α
thermal hypersensitivity (mice [3]; female mice, i.pl. 300 U/25 μL): no significant changes | paw withdrawal latency to thermal stimulation (mice [3]; male mice, i.pl. 300 U/25 μL): no significant changes | AKT phosphorylation (cultured DRG neurons; 300 U/mL): stimulated AKT phosphorylation | ERK and eIF4E phosphorylation (cultured DRG neurons; 300 U/mL): increase | downstream JAK/STAT signaling pathways (cultured DRG neurons; 300 U/mL): rapidly activated | BiP expression or signaling via PKR and downstream p-eIF2α (cultured DRG neurons; 300 U/mL, 1-6 h): did not modify | PKR phosphorylation (cultured DRG neurons; 300 U/mL, long exposure (24 h)): did not modify | mTOR or ribosomal protein S6 phosphorylation (cultured DRG neurons; 300 U/mL, time course of 6 h): did not observe any changes | hind paw mechanical hypersensitivity (mice [4]; female mice, i.pl. 300 U/25 μL): increased hind paw mechanical hypersensitivity | mechanical hypersensitivity to von Frey filament stimulation (mice [4]; male mice, i.pl. 300 U/25 μL): rapid mechanical hypersensitivity | excitability, number of action potentials elicited by ramp current injections (DRG neurons [5]): elevated excitability | latency to the first spike following ramp current injection (DRG neurons [5]): shortened the latency | resting membrane potential (RMP) (DRG neurons [5]): -47.5±2.5 mV | phosphorylation of eIF4E (ICC) (eIF4E [6]): stimulated phosphorylation of eIF4E

poly (I:C)
core body temperature [7]: increase in core body temperature | thermal hypersensitivity (mice [3]; [9]): thermal hypersensitivity | phosphorylated eIF4E immunoreactivity in L5 DRGs (eIF4E [8]): increased phosphorylated eIF4E immunoreactivity | total eIF4E protein in L5 DRGs (eIF4E [8]): without affecting total eIF4E protein | p-ERK, p-eIF4E, p-PKR or p-eIF2α (cultured DRG neurons; direct application 10 μg/mL): did not increase | mechanical hypersensitivity (mice [4]; [9]): developed mechanical hypersensitivity
